Where a name gives a salt, the structure may show the parent alone.
Columns and labels:
E. coli (ATCC25922) = assay: MIC against E. coli; settings: Escherichia coli, ATCC25922, read-out: E. coli MIC (ATCC25922) (mg/L)
P. aeruginosa PBP1a = P. aeruginosa PBP1a (Pseudomonas aeruginosa, UniProt Q07806); type: biochemical; settings: P. aeruginosa PBP1a 60 nM, BOCILLIN FL 30 nM, pH 7.0
[1] = test system: K. pneumoniae (ATCC700603); assay: MIC against K. pneumoniae; settings: Klebsiella pneumoniae, ATCC700603, read-out: K. pneumoniae MIC (ATCC700603)
P. aeruginosa PBP2 = target: T1, P. aeruginosa PBP2 (Pseudomonas aeruginosa, UniProt Q9X6V3); type: biochemical; settings: P. aeruginosa PBP2 300 nM, BOCILLIN FL 30 nM, pH 6.2
T1 sequence (Q9X6V3 1-646): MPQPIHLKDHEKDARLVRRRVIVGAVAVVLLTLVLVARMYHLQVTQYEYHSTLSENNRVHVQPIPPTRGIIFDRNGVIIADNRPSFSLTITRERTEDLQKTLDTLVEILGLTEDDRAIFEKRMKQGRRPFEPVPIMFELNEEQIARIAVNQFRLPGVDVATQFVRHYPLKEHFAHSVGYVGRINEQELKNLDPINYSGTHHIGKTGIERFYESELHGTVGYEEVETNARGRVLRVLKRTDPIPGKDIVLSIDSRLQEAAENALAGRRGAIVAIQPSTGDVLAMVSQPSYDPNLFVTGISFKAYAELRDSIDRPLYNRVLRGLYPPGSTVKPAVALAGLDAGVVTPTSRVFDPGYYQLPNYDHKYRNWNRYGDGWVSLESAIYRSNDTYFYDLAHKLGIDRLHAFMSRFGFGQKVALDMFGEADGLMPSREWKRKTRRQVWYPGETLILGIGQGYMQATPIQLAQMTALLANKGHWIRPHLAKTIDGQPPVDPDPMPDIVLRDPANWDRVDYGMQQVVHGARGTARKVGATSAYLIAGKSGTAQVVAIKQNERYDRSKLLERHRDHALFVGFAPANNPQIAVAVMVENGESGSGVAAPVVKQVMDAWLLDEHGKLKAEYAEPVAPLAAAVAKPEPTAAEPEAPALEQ

P. aeruginosa PBP3 = P. aeruginosa PBP3 (Pseudomonas aeruginosa, UniProt G3XD46); type: biochemical; settings: P. aeruginosa PBP3 60 nM, BOCILLIN FL 30 nM, pH 7.0
B. anthracis = assay: microbe, parasite or virus in culture; settings: Bacillus anthracis, read-out: MIC against B. anthracis
B. mallei = assay: microbe, parasite or virus in culture; settings: Burkholderia mallei, read-out: MIC against B. mallei
B. pseudomallei = assay: microbe, parasite or virus in culture; settings: Burkholderia pseudomallei, read-out: MIC against B. pseudomallei
F. tularensis = assay: microbe, parasite or virus in culture; settings: Francisella tularensis, read-out: MIC against F. tularensis
P. aeruginosa WT (PAO1) = assay: MIC, CLSI broth microdilution, P. aeruginosa; type: cell-based; settings: Pseudomonas aeruginosa, PAO1; CLSI broth microdilution; read-out: P. aeruginosa WT (PAO1) MIC
A. baumannii (ARC3495) = assay: MIC against A. baumannii; settings: Acinetobacter baumannii, read-out: A. baumannii MIC (ARC3495) (mg/L)
Y. pestis = assay: microbe, parasite or virus in culture; settings: Yersinia pestis, read-out: MIC against Y. pestis

P. aeruginosa PBP1a, sequence (Q07806 whole entry): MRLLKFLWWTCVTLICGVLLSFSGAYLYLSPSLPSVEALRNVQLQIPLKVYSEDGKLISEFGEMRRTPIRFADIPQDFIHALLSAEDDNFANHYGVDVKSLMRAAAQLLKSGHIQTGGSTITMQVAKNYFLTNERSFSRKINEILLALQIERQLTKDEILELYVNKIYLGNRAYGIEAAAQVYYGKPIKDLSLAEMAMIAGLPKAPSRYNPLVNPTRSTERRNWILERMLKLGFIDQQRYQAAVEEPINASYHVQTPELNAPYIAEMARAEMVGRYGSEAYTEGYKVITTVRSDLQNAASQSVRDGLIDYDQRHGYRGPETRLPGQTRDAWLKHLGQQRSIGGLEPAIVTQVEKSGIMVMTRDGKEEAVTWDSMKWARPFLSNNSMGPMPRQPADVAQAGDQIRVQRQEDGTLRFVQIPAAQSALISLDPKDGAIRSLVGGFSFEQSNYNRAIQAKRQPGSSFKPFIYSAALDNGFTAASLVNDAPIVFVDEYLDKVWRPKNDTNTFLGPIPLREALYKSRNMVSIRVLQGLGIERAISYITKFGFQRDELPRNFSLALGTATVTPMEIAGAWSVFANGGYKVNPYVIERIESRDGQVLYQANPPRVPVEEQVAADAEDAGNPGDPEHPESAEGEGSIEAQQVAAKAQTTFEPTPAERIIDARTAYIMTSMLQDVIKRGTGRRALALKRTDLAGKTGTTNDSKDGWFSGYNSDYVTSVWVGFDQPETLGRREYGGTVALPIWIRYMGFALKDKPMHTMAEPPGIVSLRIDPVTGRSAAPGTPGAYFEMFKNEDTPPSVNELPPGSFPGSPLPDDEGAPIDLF
P. aeruginosa PBP3, sequence (G3XD46 whole entry): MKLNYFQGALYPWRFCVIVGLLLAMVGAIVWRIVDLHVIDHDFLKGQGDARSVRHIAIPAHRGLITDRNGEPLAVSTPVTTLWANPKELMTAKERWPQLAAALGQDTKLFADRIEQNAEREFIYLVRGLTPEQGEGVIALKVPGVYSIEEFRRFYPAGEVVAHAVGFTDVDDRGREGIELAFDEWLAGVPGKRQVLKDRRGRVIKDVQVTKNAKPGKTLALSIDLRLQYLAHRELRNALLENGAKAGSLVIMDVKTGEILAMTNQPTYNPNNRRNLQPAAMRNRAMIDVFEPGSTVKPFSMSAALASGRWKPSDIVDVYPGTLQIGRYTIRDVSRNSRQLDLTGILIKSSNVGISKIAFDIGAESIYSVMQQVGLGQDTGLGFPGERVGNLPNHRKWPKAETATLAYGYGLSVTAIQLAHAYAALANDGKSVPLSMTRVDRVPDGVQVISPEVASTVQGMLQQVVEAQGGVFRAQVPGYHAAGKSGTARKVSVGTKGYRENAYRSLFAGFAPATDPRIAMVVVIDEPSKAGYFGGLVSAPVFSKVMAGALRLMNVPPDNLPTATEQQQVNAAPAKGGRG

| SMILES | MIC (E. coli (ATCC25922)) [mg/L] | PBP1a acylation rate, k(on) (M^−1 · s^−1) (P. aeruginosa PBP1a) | MIC [1] [µg/mL] | PBP2 acylation rate, k(on) (M^−1 · s^−1) (P. aeruginosa PBP2) | PBP3 acylation rate, k(on) (M^−1 · s^−1) (P. aeruginosa PBP3) | MIC (B. anthracis) [µg/mL] | MIC (B. mallei) [µg/mL] | MIC (B. pseudomallei) [µg/mL] | MIC (F. tularensis) [µg/mL] | MIC (P. aeruginosa WT (PAO1)) [µg/mL] | MIC (A. baumannii (ARC3495)) [mg/L] | MIC (Y. pestis) [µg/mL] |
| --- | --- | --- | --- | --- | --- | --- | --- | --- | --- | --- | --- | --- |
| CN/C(=N\O)[C@@H]1c2c(cnn2C)[C@@H]2CN1C(=O)N2OS(=O)(=O)O (stereo in doubt) [Example 40, Sodium (4R*,8S*)-8-((Z)—N′-hydroxy-N-methylcarbamimidoyl)-1-methyl-6-oxo-4,8-dihydro-1H-4,7-methanopyrazolo[3,4-e][1,3]diazepin-5(6H)-yl hydrogen sulfate] | < 8 | ** (** represents a k(on) of 100 to 10,000 M^−1 · s^−1) | < 8 | * (* represents a k(on) < 100 M^−1 · s^−1) | *** (*** represents a k(on) > 10,000 M^−1 · s^−1) | < 4 | < 4 | < 4 | < 4 | < 8 | < 8 | < 4 |
| C/C(=N\O)[C@@H]1c2c(cnn2C)[C@@H]2CN1C(=O)N2OS(=O)(=O)O [Example 71, (4R,8S)-8-((E)-1-(hydroxyimino)ethyl)-1-methyl-6-oxo-4,8-dihydro-1H-4,7-methanopyrazolo[3,4-e][1,3]diazepin-5(6H)-yl hydrogen sulfate] | 8 to 16 | * (* represents a k(on) < 100 M^−1 · s^−1) | > 16 | * (* represents a k(on) < 100 M^−1 · s^−1) | ** (** represents a k(on) of 100 to 10,000 M^−1 · s^−1) |  |  |  |  | 8 to 16 | > 16 |  |
| CN(N)/C(=N\OS(=O)(=O)O)[C@@H]1c2c(cnn2C)[C@@H]2CN1C(=O)N2OS(=O)(=O)O [Example 72, ((((Z)-((4R,8S)-1-methyl-6-oxo-5-(sulfooxy)-4,5,6,8-tetrahydro-1H-4,7-methanopyrazolo[3,4-e][1,3]diazepin-8-yl)(1-methylhydrazineyl)methylene)amino)oxy)sulfonic acid] | < 8 | ** (** represents a k(on) of 100 to 10,000 M^−1 · s^−1) | > 16 | * (* represents a k(on) < 100 M^−1 · s^−1) | *** (*** represents a k(on) > 10,000 M^−1 · s^−1) |  |  |  |  | > 16 | > 16 |  |
